Columns and labels:
[1] = tested on: LDL; assay: In vitro LDL oxidation (Cu++), conjugated diene formation; type: biochemical, rabbit; conditions: for LDL Oxd. Inhib. mean lag ratio: 10 μM, rabbit plasma LDL, Cu++, treated/control lag time
[2] = tested on: hamster LDL; assay: Ex vivo LDL lipid peroxidation assay in hamsters (Cu++ oxidation; conjugated dienes or lipid peroxides); conditions: 17 days; for Conj. Dienes lag ratio: treated/control
Procedure: As a secondary screen, test compounds are evaluated ex vivo for their oral effectiveness to inhibit LDL oxidation. […] Again, the conjugated diene assay is used to assess lipid peroxidation.
Hamsters (n=6 per group) were placed on an atherogenic diet (0.4% cholesterol+10% vitamin E stripped corn oil), and were orally dosed for 17 days with the indicated compounds at 75 mpk/day. The resistance of hamster LDL to copper-dependent oxidation in vitro was determined by conjugated dienes or lipid peroxides.

[3] = tested on: HMG-CoA reductase; assay: In vivo evaluation in normocholesterolemic chickens: specific activity of HMG-CoA reductase; parameters: species or system chicken; conditions: male chickens, orally dosed for 4 weeks at 4 mg/kg/day
Procedure: (§1) Hypocholesterolemic activity was evaluated for representative compounds of the present invention using γ-tocotrienol as a control in normocholesterolemic chickens. Newborn male chicks (6-10 for each group) were raised on a standard corn-soybean-based control diet for two weeks and then were switched to either control or experimental diets for four weeks. Drug treatment consisted of the addition of test compound to the corn-soybean-based. At the end of the feeding period, all the birds were fasted (about 36 hours) and refed (about 48 hours) to induce cholesterolgenic enzymes prior to sacrifice. The specific activity of HMG-CoA reductase, total serum cholesterol levels, and HDL/LDL cholesterol pools were examined (Table II).
(§2) Effects of Compounds of the present invention on Lipid
(§3) Parameters in Male Chickens
(§4) Orally dosed for 4-weeks at 4 mg/kg/day

[4] = tested on: human hepatoma HepG2 cells; assay: HepG2 cell culture model: cholesterol synthesis by 14C-acetate incorporation; type: cell-based; conditions: 4 h incubation, read-out: Cholesterol Biosynthesis
Procedure: (§5) The human hepatoma HepG2 cell culture model was employed to compare the intrinsic activities of the representative compounds of the present invention relative to the tocotrienols. HepG2 cells were incubated with the indicated compounds for 4 hours at 10 μM. Cholesterol synthesis was assayed by ^14 C-acetate incorporation over the final hour of incubation, and HMG-CoA reductase suppression (specific activity) was assayed in the microsomal fraction isolated from parallel cultures at the end of the 4 hour incubation.

[5] = In vivo hypocholesterolemic activity in normocholesterolemic chickens: total serum cholesterol and HDL/LDL cholesterol pools; parameters: species or system chicken; conditions: male chickens, orally dosed for 4 weeks at 4 mg/kg/day
Procedure: as §1, §2, §3, §4

[6] = Redox potential by cyclic voltammetry; type: physicochemical; conditions: for Oxd. Potential: cyclic voltammetry
Text: One method for the measurement of general antioxidant capacity is stopped-flow kinetic analysis. (Mukai, et al., Bull. Chem. Soc. Jpn., 59: 3113-3116 (1986); Mukai, et al., J. Org. Chem., 54: 557-560 (1989); Mukai, et al. J. Org. Chem., 53: 430-432 (1988)). This is a sophisticated setup wherein, one measures radical transfer from a stable radical, (for example 2,6-di-tert-butyl-4-(4-methoxyphenyl)phenoxy), to a test compound spectrophotometrically as a function of time. […] (Mukai, et al., Bull. Chem. Soc. Jpn., 59: 3113-3116 (1986); Mukai, et al., J. Org. Chem., 54: 557-560 (1989); Mukai, et al. J. Org. Chem., 53: 430-432 (1988)). Voltammetry has been used by Moldeus et al. to study the antioxidant capacity of structurally related dibenzo[1,4]dichalcogenines as inhibitors of lipid peroxidation. (Cotgreave, et al., Biochem. Pharm., 42: 1481-85 (1991)). In their case, a strong correlation between voltammetric potential and the ability to inhibit lipid peroxidation was observed.
(Mukai, et al., J. Org. Chem., 53: 430-432 (1988); Mukai, et al., J. Org. Chem., 54: 552-556 (1989); Mukai, et al., J. Org. Chem., 56: 4188-4192 (1991)).

[7] = tested on: HMG-CoA reductase; assay: HepG2 cell culture model: HMG-CoA reductase suppression (specific activity, microsomal fraction); type: cell-based, human; conditions: 10 μM, 4 h incubation, HepG2 cells
Procedure: as §5

[8] = tested on: cholesterol fed rabbits; conditions: cited from earlier work
[9] = in vivo; cited from earlier work

| SMILES | LDL Oxd. Inhib. mean lag ratio [1] | activity at 10 µM [4] [%] | Tot.-C [5] | lipid peroxide formation in LDL, % of Control, 1.5 h ([2]; 50 mg/kg/d oral) | lipid peroxide formation in LDL, % of Control, 3.0 h ([2]; 50 mg/kg/d oral) | Conj. Dienes lag ratio ([2]; 50 mg/kg/d oral) | further results |
| --- | --- | --- | --- | --- | --- | --- | --- |
| CCOc1ccc2c(c1)C(C)=CC(C)(C)N2 [ETHOXYQUIN] | 1.21 | – | – | – | – | – | lipid peroxide formation in LDL, % of Control, 1.5 h ([2]; 75 mg/kg/d oral): 0 % of Control; lipid peroxide formation in LDL, % of Control, 3.0 h ([2]; 75 mg/kg/d oral): 13 % of Control; Conj. Dienes lag ratio ([2]; 75 mg/kg/d oral): 1.81 |
| CC1=CC(C)(C)Nc2ccc(OCCC/C=C(\C)CCc3cccc(C(F)(F)F)c3)cc21 [Compound 18] | – | 42 | 61.2 % of Control | – | – | – | HMGR [3]: 66.4 % of Control; HDL-C [5]: 93.8 % of Control; LDL-C [5]: 26.0 % of Control |
| Cc1c(C)c2c(c(C)c1O)CCC(C)(CCCC(C)CCCC(C)CCCC(C)C)O2 (stereo not drawn) [α-Tocopherol] | 1.01 | – | – | 15 % of Control | 36 % of Control | > 3 | – |
| CC(C)=CCC/C(C)=C/CC/C(C)=C/CCCSc1ccc2c(c1)C(C)=CC(C)(C)N2 [Compound 8, 1,2-Dihydro-2,2,4-Trimethyl-6-[(5,9,13-Trimethyl-4(E),8(E),1 2-tetradecatrienyl)thio]Quinoline] | 1.64 | 3 | 100.9 % of Control | – | – | – | Oxd. Potential [6]: 1.20 Volts; HDL-C [5]: 98.2 % of Control; LDL-C [5]: 99.1 % of Control |
| CC(C)=CCC/C(C)=C/CC/C(C)=C/CCC1(C)CCc2cc(O)c(C)c(C)c2O1 (centres unmarked) [γ-Tocotrienol] | 1.27 | 29 | 76.3 % of Control | 7 % of Control | 67 % of Control | 1.48 | HMGR Suppression [7]: 65% of Control |
| CC(C)=CCC/C(C)=C/CC/C(C)=C/CCCOc1ccc2c(c1)C(C)=CC(C)(C)N2 [Compound 4, 1,2-Dihydro-2,2,4-Trimethyl-6-[(5,9,13-Trimethyl-4(E),8(E),1 2-tetradecatrienyl)oxy]Quinoline] | 1.80 | 48 | 65.9 % of Control | 3 % of Control | 31 % of Control | 1.57 | LDL protective capacity compared with standard reference agents ([1]; in vitro and ex vivo (Tables III, IV), in words): superior LDL protective capacity; HMGR [3]: 83.8 % of Control; HMGR Suppression [7]: 40% of Control; Oxd. Potential [6]: 0.47 Volts; oxidation potential compared with standard reference agents ([6]; over standard reference agents, in words): lower oxidation potential; HDL-C [5]: 89.0 % of Control; LDL-C [5]: 45.3 % of Control |
| Cc1c(O)cc2c(c1C)OC(C)(CCCC(C)CCCC(C)CCCC(C)C)CC2 (centres unmarked) [γ-Tocopherol] | 1.17 | – | – | – | – | – | – |
| CC1(C)C=C(CS(=O)(=O)O)c2cc(Cc3ccc4c(c3)C(CS(=O)(=O)O)=CC(C)(C)N4)ccc2N1 [MTDQ-DA] | – | – | – | – | – | – | effects on various lipid parameters ([8]; cholesterol fed rabbits): fairly modest effects on various lipid parameters; plaque progression ([8]; relative to the cholesterol fed rabbit controls): completely inhibited plaque progression |
| CC(C)(Sc1cc(C(C)(C)C)c(O)c(C(C)(C)C)c1)Sc1cc(C(C)(C)C)c(O)c(C(C)(C)C)c1 [PROBUCOL, 4,4'-[(1-methylethylidene)bis(thio)]-bis[2,6-bis(1,1-dimethylethyl)]] | – | – | – | 48 % of Control | 93 % of Control | – | bioavailability [9]: suffers from bioavailability problems |
| Cc1cc(C(C)(C)C)c(O)c(C(C)(C)C)c1 [Butylatedhydroxytoluene] | 1.38 | – | – | – | – | – | – |
| CC(C)=CCC/C(C)=C/CC/C(C)=C/CCCCc1ccc2c(c1)C(C)=CC(C)(C)N2 [Compound 11, 1,2-Dihydro-2,2,4-Trimethyl-6-[6,10,14-Trimethyl-5(E),9(E), 13-Pentadecatrienyl]Quinoline] | – | 89 | – | – | – | – | – |
| O=C1O[C@H]([C@@H](O)CO)C(O)=C1O [Na Ascorbate] | – | – | – | 8 % of Control | 91 % of Control | 1.33 | – |
